Legend:
[1] = target: T1, glutamine transporter SLC1A5 (Mus musculus, UniProt P51912); assay: [U-14C]-glutamine uptake in C2C12 cells; type: cell-based, murine; design: endogenous in cells; host or cells: C2C12 myoblast cell line
T1 sequence (P51912 1-553): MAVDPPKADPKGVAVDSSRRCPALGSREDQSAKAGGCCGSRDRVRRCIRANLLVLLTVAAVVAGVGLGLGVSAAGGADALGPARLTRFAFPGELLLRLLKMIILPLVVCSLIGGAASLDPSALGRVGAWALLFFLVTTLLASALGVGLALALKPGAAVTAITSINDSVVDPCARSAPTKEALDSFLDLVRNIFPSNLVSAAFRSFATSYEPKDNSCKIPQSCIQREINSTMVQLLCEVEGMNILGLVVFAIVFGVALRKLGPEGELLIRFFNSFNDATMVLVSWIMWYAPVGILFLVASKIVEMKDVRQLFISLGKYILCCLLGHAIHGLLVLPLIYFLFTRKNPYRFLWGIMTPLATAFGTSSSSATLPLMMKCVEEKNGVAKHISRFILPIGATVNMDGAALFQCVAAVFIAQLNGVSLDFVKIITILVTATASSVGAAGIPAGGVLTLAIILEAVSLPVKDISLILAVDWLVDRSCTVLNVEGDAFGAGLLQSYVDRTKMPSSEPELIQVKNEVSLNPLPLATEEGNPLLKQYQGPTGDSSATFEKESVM
Method: e: [U-^14C]-glutamine uptake in SLC1A5-deficient C2C12 cells obtained by co-expressing the Cas9 along with a gRNA targeting the Slc1a5 locus. Wild type cells (Ctrl) and a non-targeting scrambled (Scrl) gRNA were used as negative controls. C2C12 cells treated with SLC1A5 inhibitor gamma-L-Glutamyl-p-Nitroanilide (GPNA) was used as a positive control.
BMDMs were incubated in M199 medium (Gibco) supplemented with 10% FBS and 0.5 μCi/ml [U-^14C]-glutamine for 30 min at 37° C. Cells were lysed in 1N NaOH and the radioactivity was measured by liquid scintillation counting.

[2] = target: T1, glutamine transporter SLC1A5; assay: CTX muscle injury with SLC1A5 inhibition by GPNA, proliferating muscle precursors; type: in vivo, mice; design: from tissue; host or cells: living CTRL and Glud1 ΔMo mice (C57BL/6); read-out in tibialis anterior muscle; conditions: Glud1ΔMo TA muscles 1 day after CTX injury; GPNA 3 times per day, oral, vs vehicle
Method: m: Quantification of proliferating muscle precursors on sections of TA muscles 1 day after CTX injury, stained for PHH3 and laminin. CTRL and Glud1^ΔM0 mice were treated 3 times per day with the SLC1A5 inhibitor GPNA, or vehicle as control. Number of samples included in the analysis: CTRL with vehicle, n=5; Glud1^ΔMo with vehicle, n=5; CTRL with GPNA, n=8; Glud1^ΔMo with GPNA, n=8.
(§1) Mice were anaesthetized with isoflurane and 50 μl of 10 μM CTX was injected in the tibialis anterior (TA) muscle. Muscles were harvested for analysis at different time points post-injury (day 1 and day 6). In vivo GLUD1 inhibition was achieved by bi-daily gavage of R162 (Focus Biomolecules) at 0.6 mg/mouse. Mice were pretreated 1 day before CTX injection or ischemic ligation. Afterwards, mice continued to receive daily treatment until their sacrifice. To inhibit SLC1A5, mice were treated 3 times per day with 500 mM GPNA (Sigma-Aldrich). […]
(§2) 7 μm-thick cryosections were obtained by using a Leica cryostat from frozen muscles collected in optimal cutting temperature compound (OCT). […] Necrotic and regenerating muscle fibers, were detected by H&E staining as previously described (Takeda et al. 2011, Nature 479:122-126) and analysed by ImageJ software. […] Whenever sections were stained in fluorescence, ProLong Gold mounting medium with or without DAPI (Invitrogen) was used. […]

[3] = target: glutamine synthetase (GS) (Mus musculus, UniProt P15105); conditions: GLUD1-deficient BMDMs, glutamine deprivation, 1 mM MSO for 48 hours
Method: o: Quantification (by GC-MS) of extracellular glutamine content from BMDMs under glutamine deprivation treated with and without MSO.
Briefly, bone marrow cells (1.6×10^6 cells/ml) were cultured in a volume of 6 ml in a 10 cm Petri dish in DMEM supplemented with 20% FBS and 30% L929 conditioned medium as a source of M-CSF. After 3 days of culture, an additional 3 ml of differentiation medium was added. At day 7, macrophages were harvested with ice cold Ca2^+ and Mg2^+-free PBS. The cells obtained were uniformly macrophages as assessed by FACS, using the pan-macrophage marker F4/80.
For mass spectrometry analysis of glutamate and glutamine, 2×10^6 cell pellets were washed twice in PBS and extracted in 500 μl of 80% methanol (80-20, methanol-water). Upon extraction, samples were centrifuged at 20.000×g for 15 min and the supernatant was dried using a vacuum centrifuge. Twenty-five μl of a 2% methoxyamine hydrochloride solution (20 mg dissolved in 1 ml pyridine) were added to the dried pellet and the tubes were then placed at 37° C. for 90 min. […] The mass spectrometer operated in SIM mode, glutamine and glutamate were determined from the m/z 341.2 and 342.2 respectively. For the quantification we used the Agilent Masshunter Quan tool.

GLUD1 [4] = target: T2, GLUD1 (Mus musculus, UniProt P26443); assay: Cardiotoxin (CTX) muscle injury of tibialis anterior, R162 by bi-daily gavage; type: in vivo; conditions: wild type mice
T2 construct: from tissue; host or cells: living C57BL/6 wild-type mice; systemic exposure, read-out in tibialis anterior / crural muscle
Description: a-c: Quantification of regenerating fibers (a) and intact differentiated fibers (b) on H&E-stained sections (c) from TA muscles 6 days after CTX injury. Wild type mice were bi-daily treated with R162, or vehicle as control.
d-e: Quantification (d) and representative images (e) of F4/80^+ area in TA muscles, 6 days after CTX injury. Wild type mice were bi-daily treated with R162, or vehicle as control.
f-g: Quantification (f) and representative images (g) of proliferating muscle precursors on sections of TA muscles 1 day after CTX injury, stained for PHH3 and laminin. Wild type mice were bi-daily treated with R162, or vehicle as control.
Mice were anaesthetized with isoflurane and 50 μl of 10 μM CTX was injected in the tibialis anterior (TA) muscle. Muscles were harvested for analysis at different time points post-injury (day 1 and day 6). In vivo GLUD1 inhibition was achieved by bi-daily gavage of R162 (Focus Biomolecules) at 0.6 mg/mouse. Mice were pretreated 1 day before CTX injection or ischemic ligation. Afterwards, mice continued to receive daily treatment until their sacrifice. To inhibit SLC1A5, mice were treated 3 times per day with 500 mM GPNA (Sigma-Aldrich). CTX was injected 1 hour after the first gavage, and mice were sacrificed 24 hours afterwards.
7 μm-thick cryosections were obtained by using a Leica cryostat from frozen muscles collected in optimal cutting temperature compound (OCT). Alternatively, tibialis anterior and calf muscles (gastrocnemius) were fixed in 2% paraformaldehyde, dehydrated, embedded in paraffin, and sectioned at 7 μm thickness. Necrotic and regenerating muscle fibers, were detected by H&E staining as previously described (Takeda et al. 2011, Nature 479:122-126) and analysed by ImageJ software. After deparaffinization and rehydration, muscle sections were permeabilized by a solution containing 1% BSA, 0.2% Triton-X in PBS 30 min at RT and blocked with Donkey serum (Sigma)1 h at RT. […] Whenever sections were stained in fluorescence, ProLong Gold mounting medium with or without DAPI (Invitrogen) was used. […]

GLUD1 [5] = target: T2, GLUD1; assay: Hindlimb ischemia (femoral artery ligation), R162 by bi-daily gavage; type: in vivo; conditions: crural muscles 14 days after ligation; wild type mice; bi-daily R162 vs vehicle
Method: h-j: Quantification of the necrotic area (h) and intact differentiated fibers (i) on H&E-stained sections (j) from crural muscles 14 days after ligation. Wild type mice were bi-daily treated with R162, or vehicle as control.
k-l: Quantification (k) and representative images (l) of F4/80^+ area in crural muscles, 14 days after ligation. Wild type mice were bi-daily treated with R162, or vehicle as control.
as §1, §2

GLUD1 [6] = conditions: cited from earlier work

T2 sequence (P26443 54-558): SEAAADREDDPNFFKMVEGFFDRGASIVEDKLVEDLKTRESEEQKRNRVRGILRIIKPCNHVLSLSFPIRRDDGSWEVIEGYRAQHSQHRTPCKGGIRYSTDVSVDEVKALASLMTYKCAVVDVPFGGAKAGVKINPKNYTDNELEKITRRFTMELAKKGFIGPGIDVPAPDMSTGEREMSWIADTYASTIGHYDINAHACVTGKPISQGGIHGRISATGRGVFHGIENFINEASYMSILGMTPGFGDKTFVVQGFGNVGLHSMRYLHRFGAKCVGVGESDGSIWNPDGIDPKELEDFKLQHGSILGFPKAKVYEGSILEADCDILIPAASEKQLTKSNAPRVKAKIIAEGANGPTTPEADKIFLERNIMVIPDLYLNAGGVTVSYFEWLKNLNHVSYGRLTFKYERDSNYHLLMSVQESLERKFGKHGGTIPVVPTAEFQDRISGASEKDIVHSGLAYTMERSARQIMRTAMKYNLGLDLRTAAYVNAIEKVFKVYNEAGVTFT
Sequence of glutamine synthetase (GS) (P15105 2-373 limits assumed): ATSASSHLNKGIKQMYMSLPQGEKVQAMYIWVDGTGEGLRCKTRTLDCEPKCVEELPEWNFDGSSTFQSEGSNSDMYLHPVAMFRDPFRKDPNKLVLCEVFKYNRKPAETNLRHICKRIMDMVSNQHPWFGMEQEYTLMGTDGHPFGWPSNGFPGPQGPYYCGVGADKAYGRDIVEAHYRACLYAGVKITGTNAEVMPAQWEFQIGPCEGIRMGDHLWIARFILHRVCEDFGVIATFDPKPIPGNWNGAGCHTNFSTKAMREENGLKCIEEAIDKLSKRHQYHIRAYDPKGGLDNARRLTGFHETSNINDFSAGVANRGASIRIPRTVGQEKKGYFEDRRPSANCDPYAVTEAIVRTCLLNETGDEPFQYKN

Compound: N[C@@H](CCC(=O)Nc1ccc([N+](=O)[O-])cc1)C(=O)O [GPNA, gamma-L-Glutamyl-p-Nitroanilide]
- block of glutamine uptake [1]: 75%
- abundance of proliferating myogenic precursors (PHH3, laminin) [2]: abolished the abundance of proliferating myogenic precursors

Compound: CS(=N)(=O)CC[C@H](N)C(=O)O (stereo partly drawn) [MSO, L-methionine-SR-sulfoximine]
- extracellular glutamine production [3]: rescued back to the CTRL levels

Compound: C=CCc1ccc2c(c1O)C(=O)c1ccccc1C2=O [R162, 2-allyl-1-hydroxy-9,10-anthraquinone]
- increase in the number of PHH3+ cells (proliferating muscle precursors) upon damage (GLUD1 [4]; TA muscles 1 day after CTX injury, bi-daily oral gavage of R162 vs vehicle): 60%
- quality of the muscle (regenerating fibers and intact differentiated fibers on H&E-stained sections) (GLUD1 [4]; TA muscles 6 days after CTX injury, bi-daily oral gavage of R162 0.6 mg/mouse vs vehicle): strongly improved the quality of the muscle
- inflammation (F4/80+ area) (GLUD1 [4]; TA muscles 6 days after CTX injury, bi-daily oral gavage of R162 vs vehicle): reduced inflammation
- inflammatory response (F4/80+ area) (GLUD1 [5]): resolution of the inflammatory response
- repair of the necrotic damage (necrotic area and intact differentiated fibers on H&E-stained sections) (GLUD1 [5]): improved repair of the necrotic damage
- effect on tumor growth (GLUD1 [6]; Jin et al. 2015): therapeutic effect on tumor growth
- safety of use (GLUD1 [6]; mouse models of cancer therapy, Palmieri et al. 2017): safely used in mouse models of cancer therapy

Reference: US20200188431A1, “GLUTAMINE DEHYDROGENASE INHIBITORS FOR USE IN MUSCLE REGENERATION” (VIB VZW, priority 2017, published 2020)
